Data on four compounds can be found in patent US10934274B2, “Quinoline derivatives as TAM RTK inhibitors” (Qurient Co., Ltd., priority 2015, dated 2021).

By Kd is commonly meant a measure of binding affinity in units of concentration. High values mean weaker binding, low ones tighter binding.

Test [1] has as its target T1, Axl (Homo sapiens, UniProt P30530).
T1 construct: purchased Life Technologies
T1 sequence (P30530 26-894): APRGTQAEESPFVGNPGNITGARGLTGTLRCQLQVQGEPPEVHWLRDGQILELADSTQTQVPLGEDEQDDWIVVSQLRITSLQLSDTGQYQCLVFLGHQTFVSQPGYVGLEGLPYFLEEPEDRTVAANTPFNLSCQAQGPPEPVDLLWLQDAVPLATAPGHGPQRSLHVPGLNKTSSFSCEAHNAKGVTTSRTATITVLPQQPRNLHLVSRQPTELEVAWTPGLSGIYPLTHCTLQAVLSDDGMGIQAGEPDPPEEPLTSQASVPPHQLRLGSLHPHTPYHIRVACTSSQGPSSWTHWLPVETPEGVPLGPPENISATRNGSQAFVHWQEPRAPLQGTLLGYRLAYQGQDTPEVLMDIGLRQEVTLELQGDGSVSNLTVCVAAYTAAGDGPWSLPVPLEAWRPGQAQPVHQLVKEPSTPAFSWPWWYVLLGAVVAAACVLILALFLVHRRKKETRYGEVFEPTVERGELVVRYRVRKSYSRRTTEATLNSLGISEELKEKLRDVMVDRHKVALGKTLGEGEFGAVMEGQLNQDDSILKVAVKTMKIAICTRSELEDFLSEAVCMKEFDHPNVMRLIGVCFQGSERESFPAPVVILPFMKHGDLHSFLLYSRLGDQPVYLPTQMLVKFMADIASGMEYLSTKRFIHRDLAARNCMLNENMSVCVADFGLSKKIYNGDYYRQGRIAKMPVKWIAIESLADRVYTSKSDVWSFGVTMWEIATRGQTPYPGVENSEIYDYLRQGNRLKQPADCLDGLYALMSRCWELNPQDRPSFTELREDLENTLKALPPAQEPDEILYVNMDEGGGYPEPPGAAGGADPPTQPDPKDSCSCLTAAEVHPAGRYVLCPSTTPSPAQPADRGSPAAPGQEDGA
In words: LanthaScreen Eu kinase binding assay, Axl. The following applies: Tracer 236. (In general: Time-resolved FRET reads energy transfer from a long-lived donor to a nearby acceptor.)

Test [2] concerns the target T2, Mer (Homo sapiens, UniProt Q12866).
T2 construct: purchased Life Technologies
T2 sequence (Q12866 21-999): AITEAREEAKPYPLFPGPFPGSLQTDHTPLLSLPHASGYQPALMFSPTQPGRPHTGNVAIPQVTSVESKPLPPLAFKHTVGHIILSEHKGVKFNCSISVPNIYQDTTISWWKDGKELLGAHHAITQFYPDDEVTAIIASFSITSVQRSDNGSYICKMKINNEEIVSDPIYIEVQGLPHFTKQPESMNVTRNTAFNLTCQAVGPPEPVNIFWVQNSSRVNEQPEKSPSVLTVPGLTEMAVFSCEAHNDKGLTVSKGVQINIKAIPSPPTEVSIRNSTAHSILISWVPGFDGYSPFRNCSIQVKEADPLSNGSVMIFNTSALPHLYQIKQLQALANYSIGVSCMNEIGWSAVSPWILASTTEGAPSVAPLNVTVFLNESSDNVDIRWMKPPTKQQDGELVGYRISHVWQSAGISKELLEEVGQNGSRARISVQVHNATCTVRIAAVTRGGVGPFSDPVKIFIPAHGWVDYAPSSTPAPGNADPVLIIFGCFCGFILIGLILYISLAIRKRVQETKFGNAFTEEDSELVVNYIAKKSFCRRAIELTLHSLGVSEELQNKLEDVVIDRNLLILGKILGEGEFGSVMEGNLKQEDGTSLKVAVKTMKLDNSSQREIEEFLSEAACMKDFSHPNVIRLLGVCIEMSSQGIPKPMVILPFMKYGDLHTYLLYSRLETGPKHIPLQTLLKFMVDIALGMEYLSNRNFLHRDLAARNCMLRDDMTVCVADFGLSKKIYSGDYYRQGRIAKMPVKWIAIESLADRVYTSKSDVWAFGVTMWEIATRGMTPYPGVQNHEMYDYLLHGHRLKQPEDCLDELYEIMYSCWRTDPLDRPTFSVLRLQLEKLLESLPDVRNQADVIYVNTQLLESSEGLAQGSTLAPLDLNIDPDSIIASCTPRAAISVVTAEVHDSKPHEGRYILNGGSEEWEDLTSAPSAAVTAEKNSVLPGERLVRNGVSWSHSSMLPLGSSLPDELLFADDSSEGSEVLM
In words: LanthaScreen Eu kinase binding assay, Mer. Particulars: Tracer 236.

For test [3], the system named is HCC827/ER cells. Nature of the test: WST-1 cell viability assay in erlotinib-resistant cells. Particulars: compound combined with Erlotinib at constant 1:1 ratio, 3 days, FBS 1%. In general terms: Tetrazolium assays rely on reduction of a dye to a coloured formazan, in cell work by metabolically active cells.
Procedure: The killed cells were discarded and the remaining cells were cultured in a drug-free medium up to 80% confluence. Subsequently, cells were continuously exposed to increasing drug doses of up to 10 μM over a period of 8 months.
HCC827/ER cells were seeded in a 96-well plate with their respective media containing 10% FBS at 5000 cells/well. After seeding, the HCC827/ER cells were incubated for approximately 24 hours. […] The viability of the HCC827/ER cells was determined by adding WST-1 reagent according to Manufacturer's instructions (DoGenbio co., Ltd) and incubating for four hours. The plates were then read using an absorbance of 440 nm on Tecan Microplate reader (Infinite M200 pro, TECAN). The HCC827/ER cells' viability were calculated relative to vehicle (DMSO) control wells.

As for `CCOc1cn(CCOC(F)(F)F)nc1C(=O)Nc1ccc(Oc2ccnc3cc(OC)c(OC)cc23)cn1` [Compound 38], the equilibrium dissociation constant (Kd) in test [1] and in test [2] was below 100 nM each time. The “Combination effect of compound and erlotinib on inhibition activity in Erlotinib-resistant cell-line” value in test [3] is on record as “synergistic effect”.
With `CCOc1cn(CC(C)=O)nc1C(=O)Nc1ccc(Oc2ccnc3cc(OC)c(OC)cc23)cn1` [Compound 66], the Kd in test [1] and in test [2] was below 100 nM in each case.
With `CCOc1cn(-c2cc[nH]c2)nc1C(=O)Nc1ccc(Oc2ccnc3cc(OC)c(OC)cc23)cn1` [Compound 32], the Kd in test [1] and in test [2] was below 100 nM throughout.
As for `COc1cc2nccc(Oc3ccc(NC(=O)c4nn(-c5ccc(F)cc5Oc5ccccc5)cc4OCC4CC4)nc3)c2cc1OC` [Compound 272], the Kd is 100 to 1000 nM in test [1] and below 100 nM in test [2].
